Experimental data published in patent US7872040B2, “Receptor blocker and vasodilator comprising indole derivative as active ingredient” (priority 2004, dated 2011).

How the values were obtained:
α2-adrenoceptor = assay: Relaxation of clonidine-induced contraction of isolated rat thoracic aorta ring preparations (α2-receptor antagonistic and vasodilator effect); conditions: sample 10^-5 M; Wistar rat thoracic aorta rings contracted with clonidine (10^-7 M or 10^-6 M) in presence of L-NAME 10^-4 M; mean±standard error
From the text: (1) Preparation of Blood Vessel
Male Wistar rats were euthanized by cervical dislocation under ether anesthesia or without anesthesia and then exsanguinated by cutting the carotid arteries. Immediately thereafter, the thoracic aortae were isolated by thoracotomy. The isolated preparations were held in Krebs-Hepes solutions [mM: NaCl, 126.9; KCl, 5.9; CaCl2, 2.36; MgCl2, 1.18; Hepes, 10.03; glucose, 11.8 (pH=7.4)] gassed with O2 (100%). The connective tissues and adipose tissues were carefully removed under a stereoscopic microscope. Then, the aortic tissue was cut into ring preparations approximately 2 mm in length to use in the experiment. The vascular endothelium was not removed.
(2) Measurement of Muscle Contractile/Relaxant Response
The blood vessel preparations were held in an organ bath (UC-5TD, UFER™ Medical Instrument, Kyoto, Japan) containing 5 ml of Normal Tyrode's solution gassed with 95% O2-5% CO2. Two stainless hooks were used to suspend the preparations. Tension changes were recorded isometrically via tension transducers (T7-8-240, ORIENTEC Co., Ltd, Tokyo, Japan; and TB-611T, NIHON KOHDEN Corp., Tokyo, Japan) and amplifiers (AP-600G and AP-621G, NIHON KOHDEN Corp., Tokyo, Japan; and MSC-2, Labo Support Corporation, Osaka, Japan). Passive tension was set to the optimum tension of 2.0 g. The composition of the Normal Tyrode's solution was as follows: (mM): NaCl, 158.3; KCl, 4.0; CaCl2, 2.0; MgCl2, 1.05; NaH2PO4, 0.42; NaHCO3, 10.0; glucose, 5.6 (pH=7.4, 37±0.5° C.).
The preparations were then incubated for 60 to 90 minutes in Normal Tyrode's solution, which was replaced with 20-minute to 30-minute intervals. To start the experiment, the preparations were first allowed to contract with a high potassium solution (high-KCl, 80 mM KCl) [composition (mM): NaCl, 82.3; KCl, 80.0; CaCl2, 2.0; MgCl2, 1.05; NaH2PO4, 0.42; NaHCO3, 10.0; glucose, 5.6 (pH=7.4)] to confirm that the preparations normally contracted. Then, the preparations were washed with a Normal Tyrode's solution, and the experiment was started.
For the purpose of evaluating the potencies of indole derivatives tested, the artery preparations were stimulated with an α2-adrenoceptor agonist clonidine hydrochloride (Wako Pure Chemical Industries, Ltd., Osaka, Japan) (10^−7 M or 10^−6 M) in the presence of an NO synthase inhibitor N^G-nitro-L-arginine methyl ester (DOJNDO Laboratories, Kumamoto, Japan) (10^−4 M) to thereby induce continuous contraction. After developed tension reached a steady-sate level, samples (indole derivatives) (10^−5 M) were administered to the bath solution. After the relaxant effects of the samples reached the maximum levels, an α2-adrenoceptor antagonist yohimbine hydrochloride (Wako Pure Chemical Industries, Ltd., Osaka, Japan) (10^−5 M) was administered to the bath solution. Relaxant response to yohimbine hydrochloride (10^−5 M) and the height of contraction immediately before sample administration were defined as the maximum relaxation (=100%) and 0%, respectively, and the relaxant effect of the samples were expressed as percentages relative to the maximum relaxation to yohimbine hydrochloride (10^−5 M).
The indole derivatives (samples Nos. 1 to 23) were dissolved in 100% dimethyl sulfoxide at a concentration of 10^−2 M just before use and administered to a 5-mL organ bath for evaluation. All the other drugs were dissolved and diluted in distilled water.
The results were expressed as mean±standard error.

[1] = Clinical report: one test subject took sample No. 16 for 9 months and was followed up; type: in vivo, human
Protocol: A test subject was allowed to take the indole derivative (N-nonanoylindole-3-ethaneamine) of the sample No. 16 for 9 months, and followed up.
Test subject: healthy, 67 kg in body weight
Information before medication: non-smoking, approximately 180 ml of sake per week, well-balanced diets (meats, vegetables, and fishes) without fatty eating. The test subject has 100% white hair and goes to a barber shop once every five weeks. Their mustaches are sparse and remain in an unobtrusive growth state by shaving approximately once every two days. They are in the habit of jogging on Sunday. Muscle ache occurs about two days after the jogging and lasts for approximately 4 days. They feel insecure in erection (ED for approximately half a year).
Dosage and administration: two doses per day, administered at 1 mg around 12 p.m. and at 1 mg around 0 a.m.

[2] = after one month, 1 mg two doses per day

Molecule | Reaction (%): relaxant effect relative to the maximum relaxation to yohimbine hydrochloride (10^-5 M) (α2-adrenoceptor) [%] | other results
O=C(CCCc1c[nH]c2ccccc12)NC12CC3CC(CC(C3)C1)C2 [compound 18, N-adamantyl-4-(indole-3-yl)butaneamide] | 58.6 ± 10.6 | –
N-adamantyl-2-(1-hydroxyindole-3-yl)acetamide [compound 22] | 100.0 ± 0.00 | –
COc1ccc2[nH]c(Br)c(CCNC(C)=O)c2c1 [compound 5, N-acetyl-2-bromo-5-methoxyindole-3-ethaneamine] | 43.1 ± 16.0 | –
COc1ccc2[nH]cc(CCN(C(C)=O)C(C)=O)c2c1 [compound 3, N,N-diacetyl-5-methoxyindole-3-ethaneamine] | 25.6 ± 7.5 | –
O=C(NCCc1cn(O)c2ccccc12)C1CC1 [compound 11, 1-hydroxy-N-cyclopropylcarbonylindole-3-ethaneamine] | 15.7 ± 6.8 | –
O=C(NCCc1c[nH]c2ccccc12)C1CC1 [compound 10, N-cyclopropylcarbonylindole-3-ethaneamine] | 21.4 | –
COc1c(Br)cc2c(c1Br)c(CCNC(C)=O)c(Br)n2C(C)=O [compound 9, N,1-diacetyl-2,4,6-tribromo-5-methoxyindole-3-ethaneamine] | 97.6 ± 2.4 | –
N-adamantyl-2-(indole-3-yl)acetamide [compound 20] | 64.2 ± 8.70 | –
COc1ccc2c(c1)c(CCNC(C)=O)cn2C(C)=O [compound 2, N,1-diacetyl-5-methoxyindole-3-ethaneamine] | 18.5 ± 9.8 | –
N-adamantyl-4-(1-hydroxyindole-3-yl)butaneamide [compound 21] | 87.7 ± 8.53 | –
COc1ccc2[nH]cc(CCNC(C)=O)c2c1 [compound 1, N-acetyl-5-methoxyindole-3-ethaneamine, reference compound] | 6.7 ± 6.7 | –
CCCCCCCCC(=O)NCCc1c[nH]c2ccccc12 [compound 16, N-nonanoylindole-3-ethaneamine] | 80.7 ± 2.5 | erection ([1]; after nine months): became equal to that in their newly-married days; hair regrowth ([1]; after nine months): approximately half the hairs in the whole head except for the left frontal part of the temporal region were black hairs; muscle ache after jogging ([1]; after nine months): rapidly disappeared in one day; skin tone and complexion ([1]; after nine months): improved; erection ([1]; after one month): considerably improved; memory ([1]; after one month): memory was improved; muscle ache after jogging ([1]; after one month): slight; growth of the black hairs [1, 2]: approximately 0.5 mm per day; hair regrowth [1, 2]: black hairs were observed to grow in the scalp of the frontal part of the parietal region that had no hair; erection ([1]; after three months): improved; hair regrowth ([1]; after three months): Many black hairs were observed to grow throughout the head except for the left frontal part of the temporal region; memory ([1]; after three months): memory and retentive powers were recovered; time until muscle ache after jogging disappeared ([1]; after three months): 2 days; duration of dilation of cutaneous and penile blood vessels ([1]; person, 1 mg two doses per day): approximately 10 hours
CCCCCCC(=O)NCCc1cn(O)c2ccccc12 [compound 15, 1-hydroxy-N-heptanoylindole-3-ethaneamine] | 66.2 ± 13.9 | –
COc1c(Br)cc2[nH]c(Br)c(CCNC(C)=O)c2c1Br [compound 8, N-acetyl-2,4,6-tribromo-5-methoxyindole-3-ethaneamine] | 85.6 ± 12.0 | –
COc1ccc2[nH]c(Br)c(CCNC(C)=O)c2c1Br [compound 7, N-acetyl-2,4-dibromo-5-methoxyindole-3-ethaneamine] | 73.5 ± 15.3 | –
N-adamantyl-3-(indole-3-yl)propaneamide [compound 19] | 60.6 ± 20.7 | –
CCCCC(=O)NCCc1c[nH]c2ccccc12 [compound 12, N-pentanoylindole-3-ethaneamine] | 26.9 ± 11.4 | –
CCCCC(=O)NCCc1cn(O)c2ccccc12 [compound 13, 1-hydroxy-N-pentanoylindole-3-ethaneamine] | 25.6 ± 6.0 | –
CCCCCCCCC(=O)NCCc1cn(O)c2ccccc12 [compound 17, 1-hydroxy-N-nonanoylindole-3-ethaneamine] | 79.0 ± 13 | –
COc1ccc2[nH]cc(CCNC(C)=O)c2c1Br [compound 4, N-acetyl-4-bromo-5-methoxyindole-3-ethaneamine] | 20.3 ± 4.6 | –
COc1cc2c(CCNC(C)=O)c(Br)[nH]c2cc1Br [compound 6, N-acetyl-2,6-dibromo-5-methoxyindole-3-ethaneamine] | 64.0 ± 4.1 | –
O=C(CCCc1c[nH]c2ccccc12)NC12CC3CC(CC(C3)C1)C2 [compound 23, N-adamantyl-4-(indole-3-yl)butaneamide] | 91.5 ± 1.32 | –
CCCCCCC(=O)NCCc1c[nH]c2ccccc12 [compound 14, N-heptanoylindole-3-ethaneamine] | 70.0 ± 6.9 | –
